{"source": "BindingDB's records for PubMed 33356248", "about": "(Scientus Pharma, 2021)", "molecular_target": "Cannabinoid receptor 2 (Homo sapiens, UniProt P34972)", "sequence (P34972 whole entry)": "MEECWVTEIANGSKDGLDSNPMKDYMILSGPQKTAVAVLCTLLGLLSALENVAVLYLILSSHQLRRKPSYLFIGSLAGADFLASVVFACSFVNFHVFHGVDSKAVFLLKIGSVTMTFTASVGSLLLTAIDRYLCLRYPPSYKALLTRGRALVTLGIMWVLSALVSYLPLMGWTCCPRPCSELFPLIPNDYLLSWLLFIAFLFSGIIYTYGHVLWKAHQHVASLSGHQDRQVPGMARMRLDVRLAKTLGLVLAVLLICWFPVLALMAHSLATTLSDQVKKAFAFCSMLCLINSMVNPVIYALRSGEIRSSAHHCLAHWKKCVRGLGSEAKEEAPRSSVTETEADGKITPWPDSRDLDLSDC"}
{"compound": "CCCCCc1cc(O)c2c(c1)OC(C)(C)c1ccc(C)cc1-2", "note": "[6,6,9-Trimethyl-3-pentyl-6H-benzo[c]chromen-1-ol(Cannabinol)]", "values": [{"measurement": "EC50", "value": 0.06, "unit": "µM"}]}
